These results are taken from patent US7268160B2, “Remedies” (Takara Bio, Inc., priority 2000, dated 2007).

One data set deals with CDF1 mice. The data set can be described thus: Toxicity on oral administration to mice. The class given is in vivo. As to conditions: oral administration to a mouse once at 1000 mg/kg. The source says: Each of the compounds used in Example 16 was orally administered to mice in the same manner as in Test Example 1 described above.
A further data set concerns NGF. The data set can be described thus: Content of NGF in sciatic nerves of streptozotocin-induced diabetic rats. It is filed as in vivo, SD rats. Conditions: 4 weeks. As for the experimental part:
Male SD rats were purchased from Nippon SLC, and used for an experiment at 5 weeks old after preliminary rearing. Streptozotocin (manufactured by Nakalai Tesque) was administered intraperitoneally to the rats at a dose of 100 mg/kg body weight to induce diabetes. The rats were divided into groups according to the blood sugar level after 5 days from the administration of streptozotocin. Next, a solution prepared by dissolving butein [compound (13)] in physiological saline was administered intraperitoneally to the rats at a dose of 100 μg per 1 kg body weight. In the control group, physiological saline alone was administered in the same manner. The rats were administered for consecutive days, and sciatic nerves (about 35 mg) were enucleated after 4 weeks from the beginning of administration. The enucleated sciatic nerves were homogenized, and NGF was extracted. The content of NGF was assayed by an enzyme immunoassay method (NGF Emax Immuno Assay System, manufactured by Promega).
The numerical figures in the table are expressed by an average value±standard error of 6 cases. In addition, the asterisk * means that the group has a significant difference at a significance level of 5% or less as compared to the control group according to Student-t test. […] As described above, it was clarified that the NGF production was enhanced by the administration of butein to a living body.

The test system of data set [1] is NGF production in the L-M cells. The data set can be described thus: Enhancing activity for NGF production, Reference Example 1 method (24 hours culture, NGF enzyme immunoassay of culture medium). It is filed as cell-based, murine. As to conditions: for Enhancement Ratio (%): negative control = 100%. The method, then:
L-M cells (ATCC CCL-1.2) from murine fibroblasts were suspended in an M199 medium (manufactured by ICN) containing 0.5% bactopeptone (manufactured by Gibco BRL) so as to have a concentration of 1.5×10^5 cells/mi. The suspension was put in a 96-well plate in an amount of 0.1 ml each well, and the cells were aseptically cultured. After culturing the cells for 3 days, the medium was removed therefrom, and exchanged with an M199 medium containing 0.5% bovine serum albumin (manufactured by Sigma). Caffeic acid (manufactured by Sigma, dimethyl suif oxide (DMSO) solution), a substance known to have enhancing activity for NGF production, was added to each well containing the cells, so as to have a final concentration of 0, 50, 100 or 200 μM, and the cells were cultured for 24 hours. One having a caffeic acid concentration of 0 μM was used as a negative control. In addition, the final concentration of DM50 in each well was adjusted to 0.1%. After the termination of the culture, the NGF concentration in the culture medium was determined by an enzyme immunoassay method (NGF Emax Immuno Assay System, manufactured by Promega). The degree of the enhancement for NGF production of caffeic acid at each added amount was expressed in percentage as the enhancement ratio (%) on the basis of the NGF concentration in the cell culture medium at each added amount, when the NGF concentration in the cell culture medium of the negative control was defined as 100%. The experiment was carried out twice, and an average value was taken. It was shown that the enhancing activity for NGF production of caffeic acid could be assayed by this method.
The enhancing activity for NGF production of the compound (13) (manufactured by Funakoshi) was assayed in the same manner as in Reference Example 1. The compound (13) was added so as to have a final concentration of 0, 0.5, 1, 2, 5, 10, 20 or 50 μM.
The enhancing activity for NGF production of a compound (14) (manufactured by Sigma) was assayed in the same manner as in Reference Example 1. The compound (14) was added so as to have a final concentration of 0, 50, 100 or 200 μM.
The enhancing activity for NGF production of a compound (15) (manufactured by Sigma) was assayed in the same manner as in Reference Example 1. The compound (15) was added so as to have a final concentration of 0, 12.5, 25 or 50 μM.
The enhancing activity for NGF production of a compound (16) (manufactured by Wako Pure Chemical Industries) was assayed in the same manner as in Reference Example 1. The compound (16) was added so as to have a final concentration of 0, 25, 50 or 100 μM.

A further data set concerns SD rats. The data set can be described thus: Toxicity test in rats (Test Example 1). It is filed as in vivo. Conditions: male SD rats. As for the experimental part:
Male SD rats were purchased from Nippon SLC, and used for an experiment from 6 week-old after preliminary rearing. A solution prepared by dissolving butein [compound (13)] in physiological saline was administered intraperitoneally, or a suspension prepared by suspending butein in 0.5% carboxymethylcellulose was given by forced oral administration, to the rats. The concentration of administration was 300 mg (N=3), 10 mg (N=3), 1 mg (N=3) or 0.1 mg (N=3) per 1 kg body weight in the case of intraperitoneal administration, and 1 g (N=2) and 0.1 g (N=3) per 1 kg body weight in the case of forced oral administration. In the control group, each of the solvents alone was administered in the same manner.

Turning to `O=C(/C=C/c1ccc(O)c(O)c1)c1ccc(O)cc1O` [Compound (13), Butein], the Cases of death result in the data set on CDF1 mice is reported as “no cases of death”. The “Content of NGF (pg/Sciatic Nerves)” value in the data set with NGF (100 μg per 1 kg body weight intraperitoneally, consecutive days, streptozotocin diabetic rats, average ± standard error, N = 6, * significant at 5% vs control (119.2 ± 11.7)) was 187.7 ± 26.4* pg/Sciatic Nerves. Besides, the “Content of NGF in the nerves vs control group (in words)” value in the data set on NGF (100 μg per 1 kg intraperitoneally, diabetic rats) is on record as “content of NGF in the nerves was increased”. Besides, in data set [1] (L-M cells), the “Enhancement of NGF production (in words)” value is “enhanced NGF production in the L-M cells in a concentration-dependent manner”. The “Enhancement Ratio (%)” value in data set [1] (added amount 0.5 μM) came to 120%; in data set [1] (added amount 1 μM), 462%; in data set [1] (added amount 2 μM) it was 1107%; in data set [1] (added amount 5 μM) it was 2100%; in data set [1] (added amount 10 μM), 3686%; in data set [1] (added amount 20 μM), 3927%. Moreover, the “Enhancement Ratio (%)” value in data set [1] (added amount 50 μM) was determined as 1743%. The “Toxicity findings (death, general conditions, body weight, dissection)” value was “no cases of death, changes in the general conditions, suppression of the increase in the body weight or abnormal findings at the dissection were found” in the data set on SD rats (forced oral administration, 1 g and 0.1 g per 1 kg body weight); “no cases of death, changes in the general conditions, suppression of the increase in the body weight or abnormal findings at the dissection were found” in the data set on SD rats (intraperitoneal administration, 300 mg, 10 mg, 1 mg or 0.1 mg per 1 kg body weight).
